Laboratory results published in patent US10689399B2, “Substituted 3,4,5,6,8,10,14,14a-octahydro-2h-2,6-methanopyrido[1′,2′:4,5]pyrazino[2,1-b][1,3]oxazocines and methods for treating viral infections” (Gilead Sciences, Inc., priority 2012, dated 2020).

tested on: HIV-IIIb; experiment: Antiviral assay in MT4 cells; format: cell-based; settings: Human immunodeficiency virus 1, IIIB, MT4, 120 h, MT4 cells infected with HIV-IIIb, 5 days, CellTiter-Glo; read-out: EC50 nM in MT-4
How it was run: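 MT4 cells pre-infected with HIV-IIIb (0.004 m.o.i.) at 37 °C, or mock-infected, then seeded at 2000 cells/well onto 3-fold serially diluted compound (10 concentrations, quadruplicate) in RPMI 1640 with 10% FBS. After 5 days at 37 °C, cell viability read by CellTiter-Glo luminescence.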

SMILES	EC50 [nM]
O=C(NCc1c(Cl)ccc(Cl)c1F)c1cn2c(c(O)c1=O)C(=O)N1[C@H]3CC[C@H](C3)[C@@H]1C2 [Compound 71, (1R,4S,12aR)—N-(3,6-dichloro-2-fluorobenzyl)-7-hydroxy-6,8-dioxo-1,2,3,4,6,8,12,12a-octahydro-1,4-methanodipyrido[1,2-a:1′,2′-d]pyrazine-9-carboxamide]	2.6
O=C(NCc1cccc(Cl)c1)c1cn2c(c(O)c1=O)C(=O)N1[C@H]3CC[C@H](C3)[C@@H]1C2 [Compound 72, (1R,4S,12aR)—N-(3-chlorobenzyl)-7-hydroxy-6,8-dioxo-1,2,3,4,6,8,12,12a-octahydro-1,4-methanodipyrido[1,2-a:1′,2′-d]pyrazine-9-carboxamide]	4.3
O=C(NCc1c(F)ccc(Cl)c1F)c1cn2c(c(O)c1=O)C(=O)N1[C@H]3CC[C@H](C3)[C@@H]1C2 [Compound 73, (1R,4S,12aR)—N-(3-chloro-2,6-difluorobenzyl)-7-hydroxy-6,8-dioxo-1,2,3,4,6,8,12,12a-octahydro-1,4-methanodipyrido[1,2-a:1′,2′-d]pyrazine-9-carboxamide]	1.8
O=C(NCc1cccc(C(F)(F)F)c1F)c1cn2c(c(O)c1=O)C(=O)N1[C@H]3CC[C@H](C3)[C@@H]1C2 [Compound 74, (1R,4S,12aR)—N-(2-fluoro-3-(trifluoromethyl)benzyl)-7-hydroxy-6,8-dioxo-1,2,3,4,6,8,12,12a-octahydro-1,4-methanodipyrido[1,2-a:1′,2′-d]pyrazine-9-carboxamide]	29.3
O=C(NCc1ccc(F)c(Cl)c1)c1cn2c(c(O)c1=O)C(=O)N1[C@H]3CC[C@H](C3)[C@@H]1C2 [Compound 75, (1R,4S,12aR)—N-(3-chloro-4-fluorobenzyl)-7-hydroxy-6,8-dioxo-1,2,3,4,6,8,12,12a-octahydro-1,4-methanodipyrido[1,2-a:1′,2′-d]pyrazine-9-carboxamide]	2.8
O=C(NCc1ncc(F)cc1F)c1cn2c(c(O)c1=O)C(=O)N1[C@H]3CC[C@H](C3)[C@@H]1C2 [Compound 76, (1R,4S,12aR)—N-((3,5-difluoropyridin-2-yl)methyl)-7-hydroxy-6,8-dioxo-1,2,3,4,6,8,12,12a-octahydro-1,4-methanodipyrido[1,2-a:1′,2′-d]pyrazine-9-carboxamide]	17.8
C[C@@H](NC(=O)c1cn2c(c(O)c1=O)C(=O)N1[C@H]3CC[C@H](C3)[C@@H]1C2)c1c(F)cc(F)cc1F [Compound 77, (1R,4 S,12aR)-7-hydroxy-6,8-dioxo-N—((R)-1-(2,4,6-trifluorophenyl)ethyl)-1,2,3,4,6,8,12,12a-octahydro-1,4-methanodipyrido[1,2-a:1′,2′-d]pyrazine-9-carboxamide]	5.6
C[C@@H](NC(=O)c1cn2c(c(O)c1=O)C(=O)N1[C@@H]3CC[C@H](C3)O[C@@H]1C2)c1c(F)cc(F)cc1F [Compound 78, (2R,13aR)-8-hydroxy-7,9-dioxo-N—((R)-1-(2,4,6-trifluorophenyl)ethyl)-2,3,4,5,7,9,13,13a-octahydro-2,5-methanopyrido[1%2′: 4,5]pyrazino[2,1-b][1,3]oxazepine-10-carboxamide]	5.6
O=C(NCc1cc(F)c(F)cc1F)c1cn2c(c(O)c1=O)C(=O)N1[C@H]3CC[C@H](C3)[C@@H]1C2 [Compound 79, (1R,4S,12aR)-7-hydroxy-6,8-dioxo-N-(2,4,5-trifluorobenzyl)-1,2,3,4,6,8,12,12a-octahydro-1,4-methanodipyrido[1,2-a:1′,2′-d]pyrazine-9-carboxamide]	3.4
O=C(NCc1cc(Cl)c(F)cc1F)c1cn2c(c(O)c1=O)C(=O)N1[C@H]3CC[C@H](C3)[C@@H]1C2 [Compound 80, (1R,4S,12aR)—N-(5-chloro-2,4-difluorobenzyl)-7-hydroxy-6,8-dioxo-1,2,3,4,6,8,12,12a-octahydro-1,4-methanodipyrido[1,2-a:1′,2′-d]pyrazine-9-carboxamide]	4.6
O=C(NCc1c(F)cc(F)cc1F)c1cn2c(c(O)c1=O)C(=O)N1[C@H](C2)[C@H]2C[C@H](F)[C@@H]1C2 [Compound 81, (1R,3S,4S,12aS)-3-fluoro-7-hydroxy-6,8-dioxo-N-(2,4,6-trifluorobenzyl)-1,2,3,4,6,8,12,12a-octahydro-1,4-methanodipyrido[1,2-a:1′,2′-d]pyrazine-9-carboxamide]	1.9
O=C(NCc1c(F)cc(F)cc1F)c1cn2c(c(O)c1=O)C(=O)N1[C@@H]3C[C@@H](C[C@H]3F)[C@@H]1C2 [Compound 82, (1S,3R,4R,12aR)-3-fluoro-7-hydroxy-6,8-dioxo-N-(2,4,6-trifluorobenzyl)-1,2,3,4,6,8,12,12a-octahydro-1,4-methanodipyrido[1,2-a:1′,2′-d]pyrazine-9-carboxamide]	2.9
O=C(NCc1c(F)cc(F)cc1F)c1cn2c(c(O)c1=O)C(=O)N1[C@H](C2)[C@H]2C[C@@H]1C(F)(F)C2 [Compound 83, (1S,4R,12aS)-3,3-di fluoro-7-hydroxy-6,8-dioxo-N-(2,4,6-trifluorobenzyl)-1,2,3,4,6,8,12,12a-octahydro-1,4-methanodipyrido[1,2-a:1′,2′-d]pyrazine-9-carboxamide]	1.9
C[C@@H]1C[C@H]2C[C@@H]1[C@@H]1Cn3cc(C(=O)NCc4c(F)cc(F)cc4F)c(=O)c(O)c3C(=O)N21 [Compound 84, (1S,2R,4 S,12aR)-7-hydroxy-2-methyl-6,8-dioxo-N-(2,4,6-trifluorobenzyl)-1,2,3,4,6,8,12,12a-octahydro-1,4-methanodipyrido[1,2-a:1′,2′-d]pyrazine-9-carboxamide]	2.9
O=C(NCc1c(F)cc(F)cc1F)c1cn2c(c(O)c1=O)C(=O)N1[C@H]3CCC[C@H](C3)[C@H]1C2 [Compound 85, (6 aS,7R,11S)-1-hydroxy-2,13-dioxo-N-(2,4,6-trifluorobenzyl)-6,6a,7,8,9,10,11,13-octahydro-2H-7,11-methanopyrido[1′,2′: 4,5]pyrazino[1,2-a]azepine-3-carboxamide]	2
C[C@H]1C[C@@H]2C[C@H]1N1C(=O)c3c(O)c(=O)c(C(=O)NCc4c(F)cc(F)cc4F)cn3C[C@H]21 [Compound 86, (1R,3S,4R,12aS)-7-hydroxy-3-methyl-6,8-dioxo-N-(2,4,6-trifluorobenzyl)-1,2,3,4,6,8,12,12a-octahydro-1,4-methanodipyrido[1,2-a:1′,2′-d]pyrazine-9-carboxamide]	2.3
O=C(NCc1cccc(Cl)c1F)c1cn2c(c(O)c1=O)C(=O)N1[C@H]3CC[C@H](C3)O[C@@H]1C2 [Compound 88, (2R,5S,13aR)—N-(3-chloro-2-fluorobenzyl)-8-hydroxy-7,9-dioxo-2,3,4,5,7,9,13,13a-octahydro-2,5-methanopyrido[1′,2′:4,5]pyrazino[2,1-b][1,3]oxazepine-10-carboxamide]	2.9
O=C(NCc1cc(F)ccc1F)c1cn2c(c(O)c1=O)C(=O)N1[C@H]3CC[C@H](C3)O[C@@H]1C2 [Compound 89, (2R,5S,13aR)—N-(2,5-difluorobenzyl)-8-hydroxy-7,9-dioxo-2,3,4,5,7,9,13,13a-octahydro-2,5-methanopyrido[1′,2′:4,5]pyrazino[2,1-b][1,3]oxazepine-10-carboxamide]	8.4
O=C(NCc1cccc(Cl)c1F)c1cn2c(c(O)c1=O)C(=O)N1[C@H]3CC[C@H](C3)[C@@H]1C2 [Compound 90, (1R,4S,12aR)—N-(3-chloro-2-fluorobenzyl)-7-hydroxy-6,8-dioxo-1,2,3,4,6,8,12,12a-octahydro-1,4-methanodipyrido[1,2-a:1′,2′-d]pyrazine-9-carboxamide]	5.7
O=C(NCc1ccc(F)c(F)c1F)c1cn2c(c(O)c1=O)C(=O)N1[C@H]3CC[C@H](C3)[C@@H]1C2 [Compound 91, (1R,4S,12aR)-7-hydroxy-6,8-dioxo-N-(2,3,4-trifluorobenzyl)-1,2,3,4,6,8,12,12a-octahydro-1,4-methanodipyrido[1,2-a:1′,2′-d]pyrazine-9-carboxamide]	5
O=C(NCc1ccc(Cl)cc1F)c1cn2c(c(O)c1=O)C(=O)N1[C@H]3CC[C@H](C3)[C@@H]1C2 [Compound 92, (1R,4S,12aR)—N-(4-chloro-2-fluorobenzyl)-7-hydroxy-6,8-dioxo-1,2,3,4,6,8,12,12a-octahydro-1,4-methanodipyrido[1,2-a:1′,2′-d]pyrazine-9-carboxamide]	18.6
O=C(NCc1c(F)cc(F)cc1Cl)c1cn2c(c(O)c1=O)C(=O)N1[C@H]3CC[C@H](C3)[C@@H]1C2 [Compound 93, (1R,4S,12aR)—N-(2-chloro-4,6-difluorobenzyl)-7-hydroxy-6,8-dioxo-1,2,3,4,6,8,12,12a-octahydro-1,4-methanodipyrido[1,2-a:1′,2′-d]pyrazine-9-carboxamide]	2.2
O=C(NCc1ccccc1)c1cn2c(c(O)c1=O)C(=O)N1[C@H]3CC[C@H](C3)[C@@H]1C2 [Compound 94, (1R,4S,12aR)—N-benzyl-7-hydroxy-6,8-dioxo-1,2,3,4,6,8,12,12a-octahydro-1,4-methanodipyrido[1,2-a:1′,2′-d]pyrazine-9-carboxamide]	11.5
O=C(NCc1c(F)cc(F)cc1F)c1cn2c(c(O)c1=O)C(=O)N1[C@@H](C2)[C@H]2C[C@@H]1C(F)(F)C2 [Compound 98, (1S,4R,12aR)-3,3-difluoro-7-hydroxy-6,8-dioxo-N-(2,4,6-trifluorobenzyl)-1,2,3,4,6,8,12,12a-octahydro-1,4-methanodipyrido[1,2-a:1′,2′-d]pyrazine-9-carboxamide]	2.4
C[C@H]1C[C@@H]2C[C@H]1N1C(=O)c3c(O)c(=O)c(C(=O)NCc4c(F)cc(F)cc4F)cn3C[C@@H]21 [Compound 99, (1R,3S,4R,12aR)-7-hydroxy-3-methyl-6,8-dioxo-N-(2,4,6-trifluorobenzyl)-1,2,3,4,6,8,12,12a-octahydro-1,4-methanodipyrido[1,2-a:1′,2′-d]pyrazine-9-carboxamide]	2
